Values joined by “and” are separate entries in the source; they are usually repeats but may differ in a detail not shown here. Equal entries are not always repeated.
target: T1, Spleen Tyrosine Kinase (SYK) aa 360-635 (Homo sapiens, UniProt P43405); assay: Determination of IC50 of Spleen Tyrosine Kinase (SYK) inhibition, 33P kinase assay; assay type: biochemical; conditions: recombinant human SYK360-635, 20 μM ATP; read-out: IC50 (μM) SYK Assay
T1 construct: truncated construct of Spleen Tyrosine Kinase aa 360-635; made in house
Description: Determination of IC50 of Spleen Tyrosine Kinase (SYK) Inhibition
The SYK kinase assay is a standard kinase assay adapted to a 96 well plate format. This assay is performed in 96-well format for IC50 determination with 8 samples which represented 10 half log dilutions and a 40 μL reaction volume. The assay measures the incorporation of radiolabeled ^33P γATP into an N-terminally biotinylated peptide substrate, derived from naturally occurring phosphoacceptor consensus sequence (Biotin-11aa DY*E). Phosphorylated products were detected upon termination of reactions with EDTA and the addition of Streptavidin coated beads. • Assay plates: 96-well MultiScreen 0.65 um filter plates (Millipore Cat. No.: MADVNOB10) • Streptavidin coated beads: Streptavidin Sepharose TM, suspension 5.0 mL, in 50 mM EDTA/PBS diluted (1:100), (Amersham, Cat. No.: 17-5113-01) • Compounds: 10 mM in 100% dimethylsulfoxide (DMSO), final conc.: compound 0.003-100 uM in 10% DMSO • Enzyme: SYK RPA purified, truncated construct of Spleen Tyrosine Kinase aa 360-635, stock solution 1 mg/mL, MW: 31.2 KDa, final conc.:0.0005 μM. • Peptide 1: biotinylated peptide is derived from a naturally occurring phosphor-acceptor consensus sequence (Biotin-[…]), special order from QCB, stock solution 20 mM, final conc.: 5.0 μM. • ATP: Adenosine-5′-triphosphate 20 mM, (ROCHE Cat. No.:93202720), final concentration: 20 μM • Buffer: HEPES: 2-Hydroxyethyl piperazine-2-ethanesulfonic acid (Sigma, Cat. No.: H-3375) final concentration: 50 mM HEPES pH7.5 • BSA: Bovine Serum Albumin Fraction V, fatty acid free (Roche Diagnostics GmbH, Cat. No. 9100221) diluted to a final concentration of 0.1% • EDTA: EDTA stock solution 500 mM, (GIBCO, Cat. No.: 15575-038) final concentration: 0.1 mM • DTT: 1,4-Dithiothreitol (Roche Diagnostics GmbH, Cat. No.: 197777), final conc.: 1 mM • MgCl2×6H2O: MERCK, Cat. No.: 105833.1000, final concentration: 10 mM • Assay Dilution Buffer (ADB): 50 mM HEPES, 0.1 mM EGTA, 0.1 mM Na Vanadate, 0.1 mM β-glycerophosphate, 10 mM MgCl2, 1 mM DTT, 0,1% BSA, pH 7.5 • Bead wash buffer: 10 g/L PBS (Phosphate buffered saline) with 2M NaCl+1% phosphoric acid Experimental Method:
In 40 μL volume, 26 μL of ADB diluted, purified recombinant human SYK360-635 [0.5 nM] was mixed with 4 μL of 10× concentrations of the test compounds, [usually 100 μM-0.003 μM] in [10%] DMSO and the mixture was incubated for 10 min at RT.
The kinase reaction was initiated by the addition of 10 μL 4× substrate cocktail containing the DYE peptide substrate [0 or 5 μM], ATP [20 μM] and […] [2 μCi/rxn]. After incubation at 30° C. for 15 min, the reaction was terminated by the transfer of 25 μL of the reaction sample to a 96 well 0.65 um Millipore MADVNOB membrane/plate containing 200 μL 5 mM EDTA and 20% Streptavidine coated beads in PBS.
The unbound radionucleotides were washed under vacuum with 3×250 μL 2M NaCl; 2×250 μL 2M NaCl+1% phosphoric acid; 1×250 μL H2O. After the last wash membrane/plates were transferred to an adaptor plate, heat dried for 15 min at 60° C., and 50 μL scintillation cocktail was added to each well and 4 h later the amount of radioactivity was counted in a top counter.
The IC50 was calculated using a non-linear curve fit with XLfit software (ID Business Solution Ltd., Guilford, Surrey, UK). […] Representative results are in Table 1.

Which IC50 does the source give for `Cc1cc(Nc2nn(C(C)C)c(=O)c3cc(N4CCOCC4)ccc23)n[nH]1` [Example F-1, 2-Isopropyl-4-(5-methyl-1H-pyrazol-3-ylamino)-7-morpholino-2H-phthalazin-1-one] here?
The IC50 was 0.565 µM and 2.31 µM and 0.526 µM.

Which IC50 does the source give for `Cc1cc(Nc2nn(C(C)C)c(=O)c3cc(N4CCN(C)CC4)ccc23)[nH]n1` [Example F-5, 2-Isopropyl-7-(4-methyl-piperazin-1-yl)-4-(5-methyl-2H-pyrazol-3-ylamino)-2H-phthalazin-1-one] here?
The IC50 was 0.37 µM and 0.7 µM and 0.536 µM.

Which IC50 does the source give for `Cc1cc(Nc2nn(C(C)C)c(=O)c3cc(OCCN(C)C)ccc23)n[nH]1` [Example ZD-5, 7-(2-Dimethylamino-ethoxy)-2-isopropyl-4-(5-methyl-1H-pyrazol-3-ylamino)-2H-phthalazin-1-one] here?
Its IC50 is 1.86 µM.

Source: patent US7501410B2, “Methods of inhibiting BTK and SYK protein kinases” (Roche Palo Alto LLC, priority 2006, dated 2009)
